Consider one compound from publication PMC9762789, “Chromone-based monoamine oxidase B inhibitor with potential iron-chelating activity for the treatment of Alzheimer’s disease” (Journal of Enzyme Inhibition and Medicinal Chemistry, 2022).

One data set concerns PC-12 cells. Put plainly: Cytotoxicity test (MTT). Format: cell-based. The conditions noted are these: 24 h, up to 50 µM. As for the experimental part: To examine the interaction mode of 17d on MAO-B, kinetic studies were carried out. From the Lineweaver–Burk plots (Figure 5(B)), we observed that 17d operated by a non-competitive inhibition mechanism. […] Subsequently, the potential toxic effect of 17d was investigated on pheochromocytoma (PC-12) cells.
Neural pheochromocytoma-derived PC-12 cells at the log phase of their growth cycle (8 × 10^4 cells/ml) were added to each well (100 μl/well) and incubated for 24 h at 37 °C in a humidified atmosphere of 5% CO2. Then three replicates at various concentrations of the samples (3.13, 6.25, 12.5, 25, and 50 μM) were added to each well (100 μl/well). After incubating for 24 h, 20 μl of MTT solution (5 mg/ml/well) was added to each culture medium, which was then incubated for another 4 h. Then DMSO was added to each well (150 μl/well). After 10 min at room temperature, the OD values of each well were measured on a Microplate Reader (BioTek ELx800, Winooski, VT) at the wavelength of 490 nm.

The target of the next data set is T1, MAO-B (Homo sapiens, UniProt P27338).
T1 construct: purchased Sigma-Aldrich
T1 sequence (P27338 1-520): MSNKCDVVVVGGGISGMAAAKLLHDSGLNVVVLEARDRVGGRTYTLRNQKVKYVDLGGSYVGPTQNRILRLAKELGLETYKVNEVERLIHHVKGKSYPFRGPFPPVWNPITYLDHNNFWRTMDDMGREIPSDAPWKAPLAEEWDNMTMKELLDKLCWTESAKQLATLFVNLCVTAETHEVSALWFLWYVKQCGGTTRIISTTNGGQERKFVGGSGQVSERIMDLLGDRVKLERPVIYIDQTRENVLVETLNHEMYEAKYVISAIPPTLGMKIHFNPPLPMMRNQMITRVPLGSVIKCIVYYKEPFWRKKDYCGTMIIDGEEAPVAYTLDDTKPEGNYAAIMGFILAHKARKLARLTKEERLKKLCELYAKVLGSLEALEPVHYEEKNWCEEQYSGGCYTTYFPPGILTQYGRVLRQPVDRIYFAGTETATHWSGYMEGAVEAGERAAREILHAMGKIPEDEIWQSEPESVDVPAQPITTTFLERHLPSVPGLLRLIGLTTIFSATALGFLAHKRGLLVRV
Nature of the data set: hMAO-B inhibition assay. Format: biochemical. As for the experimental part:
The reagents and enzymes (Human MAO-B and Human MAO-A) applied in this experiment were purchased from Sigma-Aldrich. According to the manuals, all components (substrate solution and enzyme solution) are diluted and placed aside for use. The detailed process has been mentioned in our early work[34].

The nature of data set [1]: pKa determination by automated spectrophotometric titration. Format: physicochemical. To be noted: 0.1 M KCl solution.
Data set [2] in a line: iron (III) affinity constants and pFe3+ by spectrophotometric titration. Format: physicochemical.
The test system of data set [3] is scopolamine-induced cognitive impairment mice model. Put plainly: Morris water maze test, scopolamine-induced memory impairment. Format: in vivo, ICR mice. An excerpt: To further explore the in vivo anti-AD effect of compound 17d on the scopolamine-induced cognitive impairment mice model, the Morris Water Maze experiment was selected; data are shown in Figure 7 and Table 5.
Figure 7.
Adult female ICR mice (weight 20–25 g) were obtained from the Zhejiang Academy of Medical Sciences (Hangzhou, China). Scopolamine hydrobromide and Pargyline were purchased from Aladdin Reagents. Memantine was purchased from Energy Chemical. All experiments were approved by the Laboratory Animals Ethical Committee of the Zhejiang University of Technology (No. 20211210103). In this test, mice were prepared as clarified and clear injections, consisting of 20% (2-Hydroxypropyl)-β-cyclodextrin, 10% DMSO, and PBS. […] Mice were administered at a frequency of once a day over 15 d with a fixed dosing schedule. The body weight of mice was measured during the experiment.
After eliminating environmental stress, the behavioural test was performed over the next five days. The mice were trained to find the platform (10 cm diameter) in the circular light-avoidance pool (120 cm diameter and 60 cm height) filled with water (40 cm, depth), which was described in detail in our previous study. All mice received at least one training session daily in four quadrants for four consecutive days before the probe trial of finding the platform within 120 s. Recordings were made with SMART version 3.0 (Panlab, Spain) and processed by Graphpad Prism version 6 software (Graphpad Software Inc., La Jolla, CA, USA).

Another data set deals with T2, Human MAO-A (Homo sapiens, UniProt P21397).
T2 construct: purchased Sigma-Aldrich
T2 sequence (P21397 1-527): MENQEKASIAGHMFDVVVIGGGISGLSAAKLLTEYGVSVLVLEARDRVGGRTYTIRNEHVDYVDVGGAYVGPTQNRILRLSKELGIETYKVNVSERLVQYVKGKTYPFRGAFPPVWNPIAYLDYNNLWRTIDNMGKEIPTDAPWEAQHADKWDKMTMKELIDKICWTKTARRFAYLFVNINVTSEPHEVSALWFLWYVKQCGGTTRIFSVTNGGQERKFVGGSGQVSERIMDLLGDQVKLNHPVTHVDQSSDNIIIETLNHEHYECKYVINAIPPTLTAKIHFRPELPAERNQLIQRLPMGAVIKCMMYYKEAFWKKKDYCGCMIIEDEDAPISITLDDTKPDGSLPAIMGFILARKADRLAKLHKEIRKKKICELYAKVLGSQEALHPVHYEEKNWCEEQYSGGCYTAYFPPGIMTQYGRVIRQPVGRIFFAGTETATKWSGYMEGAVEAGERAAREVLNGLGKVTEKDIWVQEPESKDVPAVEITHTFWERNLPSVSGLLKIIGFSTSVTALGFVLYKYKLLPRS
Nature of the data set: hMAO-A inhibition assay. Format: biochemical. The gist of the method: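 Inhibition of hMAO-A was tested using diluted substrate and enzyme solutions per kit manuals. Selectivity index was calculated as IC50 (hMAO-A)/IC50 (hMAO-B).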

Setting [4] is: DMSO: KCl (0.1 M) = 1:1.5 (v/v).

Entries after “also recorded” stand apart in the source; their conditions may differ. Like-named read-outs stand apart in the source and are kept apart here.

As a reminder, the IC50 is the concentration that gives 50% inhibition. Low values mean inhibition by little substance, high ones a need for much substance. The melting point is the temperature of the solid-liquid transition. Consider `COc1ccc2c(=O)c(CNCCn3ccc(=O)c(O)c3C)coc2c1` [Compound 17d, 3-Hydroxy-1–(2-(((7-methoxy-4-oxo-4H-chromen-3-yl)methyl)amino)ethyl)-2-methylpyridin-4(1H)-one], for which the melting point lay in the range of 252 to 254 °C. Also, in the data set on PC-12 cells, the cytotoxicity result is listed as “no cytotoxicity; also recorded: noncytotoxic”. Besides, at MAO-B, half-maximal inhibition (IC50) was put at 67 ± 4.3 nM and the “SI: hMAO-B selectivity index = IC50 (hMAO-A)/IC50 (hMAO-B)” value was determined as 11.0. Besides, the inhibition at 0.1 µM on MAO-B (hMAO-B, 100 nM, read-out: Inhibitory rate (%, 100 nM)) is 48.9 ± 1.4%. The pKa in data set [1] (read-out: pKa1) amounted to 2.86. Further, the pKa in data set [1] (read-out: pKa2) is 9.78. Moreover, in data set [2] (setting [4]), the “Log β1” value was found to be 13.50, the “Log β2” value turned out to be 25.21 and the “Log β3” value is on record as 35.13. For the same compound, the “pFe^3+” value in data set [2] (calculated from Log β values obtained in DMSO: KCl (0.1 M) = 1:1.5 (v/v)) is 18.52. In addition, the “body weight of mice” value in data set [3] (15 mg/kg once a day, after ten days) is on record as “increased after ten days”. Besides, the scopolamine-induced cognitive impairment result in data set [3] (15 mg/kg, mice, Morris water maze) is recorded as “significantly ameliorated”. Further, the Entries to target in data set [3] (15 mg/kg, scopolamine 15 mg/kg, ICR mice, mean ± SEM, n = 15) is on record as 3.3 ± 0.3. In addition, on Human MAO-A, half-maximal inhibition (IC50) required 739 ± 21.9 nM.
